Assay results published in patent US20230025843A1, “MAMMAL KINASE INHIBITORS TO PROMOTE IN VITRO EMBRYOGENESIS INDUCTION OF PLANTS” (CONSEJO SUPERIOR DE INVESTIGACIONES CIENTIFICAS (CSIC), priority 2019, published 2023).
Where “and” joins values, the source holds several entries; their conditions need not be identical. Identical values can stand only once.

Key:
Assay type in all cases: cell-based
[1] = system: B. napus microspore cultures; experiment: Microspore embryogenesis induction in isolated microspore culture (proembryos at 4 days), liquid medium; conditions: for concentrations that provided an improvement of embryogenesis initiation yield: B. napus microspore cultures, proembryos at 4 days vs control, 3-4 concentrations tested; for increase in the percentage of proembryos: 4 days, vs control cultures normalized to 100%
Experimental: B. napus L. (rapeseed) cv. ‘Topas’ line DH407 plants were used as donor plants. Rapeseed seeds were germinated and grew under controlled conditions (relative humidity 60%, 15° C. under long-day photoperiod 16 h light and 8 h dark at 10° C.) in a growth chamber in pots containing a mixture of organic substrate and vermiculite (2/1, v/v).
Flower buds containing vacuolated microspores, the most responsive stage for microspore induction, were isolated for microspore culture as previously described (Prem et al., 2012 BMC Plant Biology 12, 127). The selected buds were surface-sterilized in 5.0% (v/v) commercial bleach (5% active chlorine) for 20 min and then rinsed 6-7 times with sterile distilled water. Ten to 15 buds were crushed using a cold mortar and pestle in 5 ml of cold NLN-13 medium containing 13% sucrose (w/v). The suspension was filtered through 48 μm nylon mesh and the filtrate collected in 15-ml falcon centrifuge tubes. The crushed buds were rinsed with 5 ml NLN-13 to make up the volume to 10 ml and the filtrate was then centrifuged at 1100 rpm for 5 min at 4° C. The pellet was re-suspended in 10 ml of cold NLN-13 and centrifuged as mentioned above. This process was repeated three times for washing of the microspores. The final pellet was suspended in the NLN-13, and the cell density was adjusted to 10,000 cells per ml. The cell suspension was then poured into 90-mm Petri dishes (10 ml per Petri dish) and cultured in darkness. For embryogenesis induction, microspore cultures were subjected to an in vitro stress treatment of 32° C. for 15 days. In response to the inductive treatment, responsive microspores divide and produce multicellular structures or proembryos, still confined within the microspore wall (exine). Such structures are considered to be the first sign of embryogenesis initiation; they can be found after 4-6 days in culture. When globular/heart shaped embryos were observed (around 20 days), cultures were shifted to 25° C. on a gyratory shaker at 60 rpm until complete development and maturation of the embryos was observed (FIG. 1), normally around 30 days in culture.
The compounds were added to the microspore liquid culture media by using stock solutions of 10 mM in DMSO. Appropriate volumes of stock solutions of the drugs were added to the culture media to get the selected working concentrations of the inhibitors, keeping DMSO concentration below 0.2%. • In B. napus microspore cultures: 4-benzyl-2-methyl-1,2,4-thiadozilidine-3,5-dione (TDZD8), 5-(2-Morpholinethylimino)-2,3-diphenyl-2,5-dihydro-1,2,4-thiadiazole (VP3.15), 3-acetyl-4-(1-methyl-1H-indol-3-yl)-1H-pirrol-2,5-dione (VP3.36), 4-hydroxy-1-ethyl-N′-palmitoyl-2-oxo-1,2-dihydroquinoline-3-carbohydrazide (VP0.7), N-(6-methylbenzothiazole-2-yl)-4-morpholinobenzamide (JZ1.3), N-(6-fluorobenzothiazole-2-yl)-4-morpholinobenzamide, (JZ1.6) and N-(6-bromobenzothiazole-2-yl)-4-morpholinobenzamide (JZ1.24). and (E,Z)-3-(morpholinoimino)indolin-2-one (IGS4.75) were tested at 3-4 different concentrations, ranging from 0.5 to 5 μM. • In H. vulgare microspore cultures: 4-benzyl-2-methyl-1,2,4-thiadozilidine-3,5-dione (TDZD8) and N-(6-bromobenzothiazole-2-yl)-4-morpholinobenzamide (JZ1.24) inhibitors at the selected concentrations (2.5 μM and […], respectively) were tested.
The compounds were added from culture initiation and their effect on embryogenesis efficiency was assessed. Several plates of the same cultures were kept without the inhibitors, as controls.
Embryogenesis induction was quantified in control and treated-cultures by the number of proembryos formed (considered the first sign of embryogenesis initiation), as previously described, and by the number of embryos produced after 40 days. Proembryos were easily identified under inverted microscope in 4 day-culture plates as rounded multicellular structures with higher size and density than microspores, still surrounded by the exine (special microspore wall). […]

[2] = system: H. vulgare microspore cultures; experiment: Microspore embryogenesis induction in isolated microspore culture (proembryos at 4 days, embryos at 40 days), liquid medium; conditions: for increase in proembryo formation: 4 days; for increment of total number of embryos produced per plate: 40 days, vs control, selected concentrations (2.5 μM TDZD8, 5 μM JZ1.24)
Experimental: H. vulgare L. cv. Igri plants were used as donor plants. Seeds were vernalized in soil for one month at 4° C., and then transferred for one month in a plant growth chamber at 18° C. for germination and growth. Finally, plants were transferred to a greenhouse under 18° C. temperature.
Spikes containing microspores at the stage of vacuolated microspore, the most responsive stage for embryogenesis induction, were collected and surface sterilized by immersion in 5% bleach for 20 min, followed by 4 washes with sterile distilled water. Isolated microspore culture was settled as previously described (Rodŕiguez-Serrano et al., 2012, Journal of Experimental Botany 63(5), 2007-2024). The sterilized spikes were pre-treated at 4° C. for 21-24 days as stress treatment to induce microspore embryogenesis. Microspore were isolated blending spikes in 20 ml of pre-cooled 0.4 M mannitol at 4° C., using a Waring Blender pre-cooled in a refrigerator at −20° C., and the extract was filtered through a 100 μm nylon mesh into a beaker pre-cooled at −20° C. The collected microspore suspension was transferred into a 50 ml tube and centrifuged at 800 rpm for 10 min at 4° C. After removing the supernatant, the pellet was resuspended in 4 ml of pre-cooled 0.55 M maltose and transferred in 15 ml falcon tube. 1.5 ml of 0.4 M mannitol solution were cautiously added unmixed. After gradient centrifugation at 800 rpm for 10 min at 4° C., the interphase band consisting of an almost pure population of vacuolated microspores was resuspended in 0.4M mannitol solution giving a final volume of 10 ml. After counting cells in the Neubauer chamber, the pelleted microspores were diluted in an appropriate volume of KBP medium to obtain a cell density of 1.1×10^5 cells per ml, and plated in 30 mm Petri dishes, at a volume of 1 ml per plate. Then, microspore cultures were incubated at 25° C. in the dark, and microspores reprogrammed and produced multicellular structures/proembryos that can be found after 4-6 days in culture, as the first sign of embryogenesis initiation. Proembryos further developed and produced coleoptylar and mature embryos (FIG. 2), which were observed after 30 days.
The compounds were added to the microspore liquid culture media by using stock solutions of 10 mM in DMSO. […]
The compounds were added from culture initiation and their effect on embryogenesis efficiency was assessed. […]
Embryogenesis induction was quantified in control and treated-cultures by the number of proembryos formed (considered the first sign of embryogenesis initiation), as previously described, and by the number of embryos produced after 40 days. […]

[3] = system: proembryos of B. napus microspore cultures; experiment: DAPI staining of proembryos, fluorescence microscopy of squash preparations; conditions: 4 days in culture
Experimental: In order to evaluate whether proembryo structures of treated cultures, identified under the inverted microscope for quantification, were actually dividing microspores, similar to the same structures in control cultures, a simply staining technique was performed to visualize nuclei inside proembryos. Samples from control and treated-cultures of 4 days, containing proembryos, were stained with 10 μg/mL 4′,6-diamidine-2-phenyl indole dihydrochloride (DAPI). Squash preparations were analysed under fluorescence microscopy using UV excitation for observing nuclei.

Row | Structure (SMILES) | concentrations that provided an improvement of embryogenesis initiation yield [1] | also measured
1 | O=C1Nc2ccccc2C1=NN1CCOCC1 [IGS4.75, (E,Z)-3-(morpholinoimino)indolin-2-one] | 5 µM | –
2 | Cc1ccc2nc(NC(=O)c3ccc(N4CCOCC4)cc3)sc2c1 [JZ1.3, N-(6-methylbenzothiazole-2-yl)-4-morpholinobenzamide] | 5 µM | –
3 | O=C(Nc1nc2ccc(F)cc2s1)c1ccc(N2CCOCC2)cc1 [JZ1.6, N-(6-fluorobenzothiazole-2-yl)-4-morpholinobenzamide] | 1 µM | –
4 | O=C(Nc1nc2ccc(Br)cc2s1)c1ccc(N2CCOCC2)cc1 [JZ1.24, N-(6-bromobenzothiazole-2-yl)-4-morpholinobenzamide] | 2.5 µM | increase in proembryo formation ([2]; 5 μM): 47%; increment of total number of embryos produced per plate [2]: 22%; increase in the percentage of proembryos ([1]; 2.5 μM): 27.5%
5 | Cn1sc(=O)n(Cc2ccccc2)c1=O [TDZD8, 4-benzyl-2-methyl-1,2,4-thiadozilidine-3,5-dione, reference compound] | 0.5 µM and 1 µM | increase in proembryo formation ([2]; 2.5 μM): 27%; increment of total number of embryos produced per plate [2]: 15%; increase in the percentage of proembryos ([1]; 0.5 μM): 20%; nuclei in proembryos (DAPI staining) [3]: proembryos contain several nuclei
6 | CCCCCCCCCCCCCCCC(=O)NNC(=O)c1c(O)c2ccccc2n(CC)c1=O [VP0.7, 4-hydroxy-1-ethyl-N′-palmitoyl-2-oxo-1,2-dihydroquinoline-3-carbohydrazide] | 5 µM | –
7 | c1ccc(-c2nc(=NCCN3CCOCC3)sn2-c2ccccc2)cc1 [VP3.15, 5-(2-Morpholinethylimino)-2,3-diphenyl-2,5-dihydro-1,2,4-thiadiazole] | 2.5 µM | –
8 | CC(=O)C1=C(c2cn(C)c3ccccc23)C(=O)NC1=O [VP3.36, 3-acetyl-4-(1-methyl-1H-indol-3-yl)-1H-pirrol-2,5-dione] | 2.5 µM | –
